Results: PubChem BioAssay (NCI)
Where “and” joins values, the source holds several entries; their conditions need not be identical. Equal entries are not always repeated.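 Growth conditions: 96-well plates. Treatment: test compound, 48 hours, 5 concentrations. Analysis: linear interpolation between bracketing concentrations; unreached endpoints set to highest concentration. Here, GI50 denotes the concentration required for 50% inhibition of growth. TGI marks complete inhibition of growth.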 Where a SMILES comes first, the peptide text is derived from it. [ ]: non-standard residue; d: D form. The star is where a group is joined. ξ: configuration not given here. ξF = NC(Cc1ccccc1)C(=O)O; Cbz = O=C(OCc1ccccc1)*

Columns and labels:
Test in all cases: growth of human tumour cells (NCI), 48 h
K-562 leukemia = system: K-562 leukemia
MDA-MB-231 breast = system: MDA-MB-231 breast
ACHN renal = system: ACHN renal
HOP-62 NSCLC = system: HOP-62 NSCLC
NCI/ADR-RES ovarian = system: NCI/ADR-RES ovarian
TK-10 renal = system: TK-10 renal
SNB-75 CNS = system: SNB-75 CNS
NCI-H23 lung = system: NCI-H23 lung
U251 CNS = system: U251 CNS
SF-268 CNS = system: SF-268 CNS

## COc1cc([C@@H]2c3cc4c(cc3[C@@H](Nc3ccc(NC(=O)c5cc([N+](=O)[O-])cn5C)cc3)[C@H]3COC(=O)[C@H]23)OCO4)cc(OC)c1O
K-562 leukemia
  GI50: 0.293 µM
  TGI: > 100 µM
MDA-MB-231 breast
  GI50: 1.34 µM and 4.74 µM
  TGI: 17.3 µM and 14.6 µM
ACHN renal
  TGI: 0.484 µM and 0.164 µM
HOP-62 NSCLC
  TGI: 0.174 µM and 0.127 µM
NCI/ADR-RES ovarian
  GI50: 2.17 µM
  TGI: > 31.6 µM
TK-10 renal
  TGI: 6.15 µM and 2.95 µM
SNB-75 CNS
  TGI: > 63.5 µM
NCI-H23 lung
  TGI: 4.04 µM and 0.546 µM
U251 CNS
  GI50: 0.0436 µM and 0.337 µM
  TGI: > 57.5 µM
SF-268 CNS
  TGI: > 33.5 µM

## Cc1cc(C)c(-c2no/c(=N\S(=O)(=O)c3ccc(Cl)cc3)o2)c(C)c1
K-562 leukemia
  TGI: > 100 µM
MDA-MB-231 breast
  TGI: > 100 µM
ACHN renal
  TGI: > 100 µM
HOP-62 NSCLC
  TGI: > 100 µM
NCI/ADR-RES ovarian
  TGI: > 100 µM
TK-10 renal
  TGI: > 100 µM
SNB-75 CNS
  TGI: > 100 µM
NCI-H23 lung
  TGI: > 100 µM
U251 CNS
  TGI: > 100 µM
SF-268 CNS
  TGI: > 100 µM

## CC(=O)c1ccc(Nc2c3c(nc4ccccc24)CCCC3)cc1
K-562 leukemia
  TGI: > 100 µM
MDA-MB-231 breast
  TGI: > 100 µM
ACHN renal
  TGI: > 100 µM
HOP-62 NSCLC
  TGI: > 47.3 µM
NCI/ADR-RES ovarian
  TGI: 56.2 µM
TK-10 renal
  TGI: > 100 µM
SNB-75 CNS
  TGI: 22.1 µM
NCI-H23 lung
  TGI: 43.4 µM
U251 CNS
  TGI: > 59.2 µM
SF-268 CNS
  TGI: > 100 µM

## S=C1Cc2c(-c3ccccc3)cc(-c3cccc(Cl)c3)nc2-c2ccccc2N1
K-562 leukemia
  TGI: > 100 µM
MDA-MB-231 breast
  TGI: 5.66 µM
ACHN renal
  TGI: 3.89 µM
HOP-62 NSCLC
  TGI: 6.48 µM
NCI/ADR-RES ovarian
  TGI: 8.32 µM
TK-10 renal
  GI50: 0.436 µM
  TGI: 1.9 µM
SNB-75 CNS
  TGI: 5.86 µM
NCI-H23 lung
  TGI: 21.2 µM
U251 CNS
  TGI: 3.31 µM
SF-268 CNS
  TGI: 17.7 µM

## COc1ccccc1C1c2cc3c(cc2OC2(OC)COC(=O)C12)OCO3 (stereo not given)
K-562 leukemia
  TGI: > 45.6 µM
MDA-MB-231 breast
  TGI: > 100 µM
ACHN renal
  TGI: > 100 µM
HOP-62 NSCLC
  TGI: > 91.2 µM
NCI/ADR-RES ovarian
  TGI: > 100 µM
TK-10 renal
  TGI: > 92.4 µM
SNB-75 CNS
  TGI: 43.1 µM
NCI-H23 lung
  TGI: > 100 µM
U251 CNS
  TGI: > 100 µM
SF-268 CNS
  TGI: 83.9 µM

## CN=c1sc2c(n1C)C(=O)c1ccccc1C2=O
K-562 leukemia
  TGI: 12.2 µM
MDA-MB-231 breast
  TGI: 33.7 µM
ACHN renal
  TGI: 19.2 µM
HOP-62 NSCLC
  TGI: 3.39 µM
NCI/ADR-RES ovarian
  TGI: 16.4 µM
TK-10 renal
  TGI: 35.6 µM
SNB-75 CNS
  TGI: 4.33 µM
NCI-H23 lung
  TGI: 2.38 µM
U251 CNS
  TGI: 10.5 µM
SF-268 CNS
  TGI: 14.5 µM

## COc1cc(C2c3cc4c(cc3OC(NN)C2C)OCO4)cc(OC)c1O (stereo not given)
K-562 leukemia
  TGI: 12.6 µM
MDA-MB-231 breast
  TGI: 84.9 µM
NCI/ADR-RES ovarian
  TGI: 94 µM
TK-10 renal
  TGI: 90.6 µM
SNB-75 CNS
  TGI: > 100 µM
NCI-H23 lung
  TGI: > 100 µM
U251 CNS
  TGI: 33.5 µM
SF-268 CNS
  TGI: > 100 µM

## CC(C)C(Cl)CCC(C)(Cl)C(=O)CBr (stereo not given)
MDA-MB-231 breast
  TGI: 21.5 µM
ACHN renal
  TGI: 19.3 µM
HOP-62 NSCLC
  TGI: 19.6 µM
NCI/ADR-RES ovarian
  TGI: 23.6 µM
TK-10 renal
  TGI: 13.7 µM
SNB-75 CNS
  TGI: 32.3 µM
NCI-H23 lung
  TGI: 21.8 µM
U251 CNS
  TGI: 25.8 µM
SF-268 CNS
  TGI: 56 µM

## O=c1c(-c2ccccc2)nnc2n(Cc3ccccc3)c3ccccc3n12
MDA-MB-231 breast
  TGI: > 100 µM
ACHN renal
  TGI: > 100 µM
NCI/ADR-RES ovarian
  TGI: > 100 µM
TK-10 renal
  TGI: > 100 µM
SNB-75 CNS
  TGI: > 100 µM
NCI-H23 lung
  TGI: > 100 µM
U251 CNS
  TGI: > 100 µM
SF-268 CNS
  TGI: > 100 µM

## CCOC(=O)c1cn(CC)c(=O)n2c1nc1ccccc12
K-562 leukemia
  TGI: > 100 µM
MDA-MB-231 breast
  TGI: > 100 µM
ACHN renal
  TGI: > 100 µM
HOP-62 NSCLC
  TGI: > 100 µM
NCI/ADR-RES ovarian
  TGI: > 100 µM
SNB-75 CNS
  TGI: > 100 µM
NCI-H23 lung
  TGI: > 100 µM
U251 CNS
  TGI: > 100 µM

## COC(=O)/C=C/c1ccc(OP(=O)(O)O)c(OC)c1
MDA-MB-231 breast
  TGI: > 100 µM
ACHN renal
  TGI: > 100 µM
HOP-62 NSCLC
  TGI: > 100 µM
TK-10 renal
  TGI: > 100 µM
SNB-75 CNS
  TGI: > 100 µM
NCI-H23 lung
  TGI: > 100 µM
U251 CNS
  TGI: > 100 µM
SF-268 CNS
  TGI: > 100 µM

## C[C@@H]1CC[C@]2(C)C3(C)CC[C@]2(OC3=O)[C@@]12CC(c1ccoc1)OC2=O (stereo not given in full)
K-562 leukemia
  TGI: 76.3 µM
ACHN renal
  TGI: 43.6 µM
HOP-62 NSCLC
  TGI: > 100 µM
NCI/ADR-RES ovarian
  TGI: > 100 µM
TK-10 renal
  TGI: 96.7 µM
NCI-H23 lung
  TGI: > 100 µM
U251 CNS
  TGI: > 100 µM
SF-268 CNS
  TGI: > 100 µM

## O=[N+]([O-])c1cccc2nc3ccccc3c(NCCCCCNc3c4ccccc4nc4cccc([N+](=O)[O-])c34)c12
K-562 leukemia
  TGI: 0.678 µM
MDA-MB-231 breast
  TGI: 0.0927 µM
ACHN renal
  TGI: 0.115 µM and 0.0165 µM
NCI/ADR-RES ovarian
  GI50: 0.297 µM
  TGI: 2.19 µM and 1.28 µM
TK-10 renal
  TGI: 0.26 µM and 1.79 µM
SNB-75 CNS
  GI50: 0.041 µM
  TGI: 0.867 µM and 0.827 µM
NCI-H23 lung
  TGI: 0.185 µM

## Clc1ccc(C=Nc2ccc(Oc3ccc(Cl)cc3)c(Cl)c2)cc1
MDA-MB-231 breast
  TGI: 47.9 µM
ACHN renal
  TGI: > 100 µM
HOP-62 NSCLC
  TGI: 37.5 µM
NCI/ADR-RES ovarian
  TGI: 58.5 µM
TK-10 renal
  TGI: > 100 µM
SNB-75 CNS
  TGI: 52.6 µM
NCI-H23 lung
  TGI: 54.2 µM
U251 CNS
  TGI: 60.5 µM
SF-268 CNS
  TGI: 41.1 µM

## CCOC(=O)CNC(=O)C(Cc1ccccc1)NC(=O)OCc1ccccc1 (stereo not given) (Cbz-[ξF]-Gly-OEt)
K-562 leukemia
  TGI: > 100 µM
MDA-MB-231 breast
  TGI: > 100 µM
ACHN renal
  TGI: > 100 µM
HOP-62 NSCLC
  TGI: > 100 µM
NCI/ADR-RES ovarian
  TGI: > 100 µM
SNB-75 CNS
  TGI: > 100 µM
NCI-H23 lung
  TGI: > 100 µM
U251 CNS
  TGI: > 100 µM
SF-268 CNS
  TGI: > 100 µM

## CC1(C)O[C@@H]2[C@@H](COC(C)(C)O[C@H]2C2SCCCS2)O1
K-562 leukemia
  TGI: > 100 µM
MDA-MB-231 breast
  TGI: > 100 µM
ACHN renal
  TGI: > 100 µM
HOP-62 NSCLC
  TGI: > 100 µM
NCI/ADR-RES ovarian
  TGI: > 100 µM
NCI-H23 lung
  TGI: > 100 µM
U251 CNS
  TGI: > 100 µM
SF-268 CNS
  TGI: > 100 µM

## O=C(O)CCCc1ccc2c(c1)CC1(C2)Cc2cc3c(cc2C1)CCCC3
K-562 leukemia
  TGI: 25.9 µM
ACHN renal
  TGI: 33.1 µM
HOP-62 NSCLC
  TGI: 3.54 µM
NCI/ADR-RES ovarian
  TGI: 87.4 µM
TK-10 renal
  TGI: > 100 µM
NCI-H23 lung
  TGI: 49.2 µM
U251 CNS
  TGI: 32.9 µM

## Cn1c2ccccc2c(=O)c2c(O)cc3c(c21)C1OCC(C)(O)C1O3 (stereo not given)
K-562 leukemia
  TGI: > 100 µM
MDA-MB-231 breast
  TGI: > 100 µM
ACHN renal
  TGI: > 100 µM
HOP-62 NSCLC
  TGI: > 100 µM
NCI/ADR-RES ovarian
  TGI: > 100 µM
TK-10 renal
  TGI: > 100 µM
SNB-75 CNS
  TGI: 56 µM
U251 CNS
  TGI: 62.5 µM
SF-268 CNS
  TGI: 86.6 µM

## COc1ccc(CCCCNCc2cccc(CNCCCCc3ccc(OC)cc3)c2)cc1
MDA-MB-231 breast
  TGI: 3.6 µM
ACHN renal
  TGI: 3.47 µM
HOP-62 NSCLC
  TGI: 4.99 µM
NCI/ADR-RES ovarian
  TGI: 3.19 µM
TK-10 renal
  TGI: 5.02 µM
SNB-75 CNS
  TGI: 3.38 µM
NCI-H23 lung
  TGI: 3.37 µM
U251 CNS
  TGI: 3.71 µM
SF-268 CNS
  TGI: 3.35 µM

## Cc1ccc(OCC2OC(n3cnc4c(Cl)nc(Nc5cc(Cl)cc(Cl)c5)nc43)CC2Oc2ccc(C)cc2)cc1 (stereo not given)
K-562 leukemia
  TGI: > 100 µM
MDA-MB-231 breast
  TGI: > 100 µM
ACHN renal
  TGI: > 100 µM
NCI/ADR-RES ovarian
  TGI: > 100 µM
SNB-75 CNS
  TGI: > 100 µM
NCI-H23 lung
  TGI: > 100 µM
U251 CNS
  TGI: > 100 µM
SF-268 CNS
  TGI: > 100 µM

## Cc1cc2nc3c(C#N)c(-c4ccccc4)/c(=C\Nc4ccc(F)cc4)c(=O)n3c2cc1C
MDA-MB-231 breast
  TGI: > 100 µM
ACHN renal
  TGI: > 100 µM
HOP-62 NSCLC
  TGI: > 100 µM
NCI/ADR-RES ovarian
  TGI: > 100 µM
TK-10 renal
  TGI: > 100 µM
SNB-75 CNS
  TGI: > 100 µM
NCI-H23 lung
  TGI: > 100 µM
U251 CNS
  TGI: > 100 µM
SF-268 CNS
  TGI: > 100 µM

## Cc1cc(O)c(/C=N/C(N)=S)c(=O)o1
MDA-MB-231 breast
  TGI: > 100 µM
ACHN renal
  TGI: > 100 µM
HOP-62 NSCLC
  TGI: > 100 µM
NCI/ADR-RES ovarian
  TGI: > 100 µM
TK-10 renal
  TGI: 90.5 µM
SNB-75 CNS
  TGI: > 100 µM
NCI-H23 lung
  TGI: > 100 µM
U251 CNS
  TGI: > 100 µM
SF-268 CNS
  TGI: > 100 µM
